Data taken from patent publication US11267826B2, “Penicillin-binding protein inhibitors” (priority 2017, dated 2022).

Experiments:
[1] = tested on: hyper-permeable E. coli 901C; assay: Broth microdilution MIC assay, hyper-permeable E. coli; assay type: cell-based; details: Escherichia coli, read-out: E. coli 901C MIC
Experimental: (§1) To determine the ability of test compounds to potentiate the inhibition of the growth of bacterial strains, classic cell based broth microdilution MIC assays were employed. MIC assays are performed according to CLSI methods except where otherwise noted (CLSI, 2011 and CLSI, 2009). The reference strain S. aureus ATCC 29213 and the hyper-permeable E. coli 901C were used to determine the ability of the PBP compounds to inhibit bacterial growth. Briefly, cryo-preserved bacterial cultures of clinical strains are streaked for isolation on appropriate agar medium, in this case Mueller Hinton II agar. Following incubation to allow formation of colonies these plates are sealed with parafilm and stored refrigerated for up to two weeks. For preparation of assay inocula and to ensure low variability, at least 5 colonies are picked from the agar plates with an inoculating loop and aseptically transferred to a culture tube containing 3 mL of Mueller-Hinton Broth (supplemented with divalent cations to required levels based on Manufacturers' certification). The broth culture is grown for 3-5 hours at 37° C. with shaking at 200 rpm. Meanwhile, 2-fold serial dilutions of test compounds are conducted in a 96 well plate with a final volume of 75 μL per well at 2-fold the final desired concentration. After the dilution plates are set up the growing cultures are then diluted in a cuvette containing MH II broth and the optical density is measured at 600 nm. Inocula are diluted such that 75 μL of this culture in Mueller-Hinton Broth results in a starting bacterial concentration of 5×10^5 CFU/mL when added to the dilution plates. The plates are incubated 16-20 hours at 37° C. The MIC is read visually as the lowest concentration well with no bacterial growth.

[2] = tested on: S. aureus ATCC 29213; assay: Broth microdilution MIC assay, S. aureus; assay type: cell-based; details: Staphylococcus aureus, ATCC29213; broth microdilution, 16-20 hours at 37° C.; read-out: S. aureus 29213 MIC
Experimental: as §1

Row | SMILES | MIC [1] [µg/mL] | MIC [2] [µg/mL]
1 | Nc1nc(/C(=N/O)C(=O)N[C@H]2Cc3ccc(O)c(C(=O)O)c3OB2O)cs1 [Example 21, (R,Z)-3-(2-(2-aminothiazol-4-yl)-2-(hydroxyimino)acetamido)-2,7-dihydroxy-3,4-dihydro-2H-benzo[e][1,2]oxaborinine-8-carboxylic Acid] | > 128 | 64 to 128
2 | CNc1nc(/C(=N/O)C(=O)N(C)[C@H]2Cc3cccc(C(=O)O)c3OB2O)cs1 [Example 22, (R,Z)-2-hydroxy-3-(2-(hydroxyimino)-N-methyl-2-(2-(methylamino)thiazol-4-yl)acetamido)-3,4-dihydro-2H-benzo[e][1,2]oxaborinine-8-carboxylic Acid] | > 128 | > 128
3 | CNc1nc(/C(=N/OCc2ccccc2)C(=O)N(C)[C@H]2Cc3cccc(C(=O)O)c3OB2O)cs1 [Example 23, (R,Z)-3-(2-((benzyloxy)imino)-N-methyl-2-(2-(methylamino)thiazol-4-yl)acetamido)-2-hydroxy-3,4-dihydro-2H-benzo[e][1,2]oxaborinine-8-carboxylic Acid] | > 128 | > 128
4 | Nc1nc(/C(=N/O)C(=O)N[C@H]2Cc3ccc(C=O)c(C(=O)O)c3OB2O)cs1 [Example 24, (R,Z)-3-(2-(2-aminothiazol-4-yl)-2-(hydroxyimino)acetamido)-7-formyl-2-hydroxy-3,4-dihydro-2H-benzo[e][1,2]oxaborinine-8-carboxylic Acid] | > 128 | 64 to 128
5 | Nc1nc(/C(=N/O)C(=O)N[C@H]2Cc3ccc(CN4CCCC4)c(C(=O)O)c3OB2O)cs1 [Example 25, (R,Z)-3-(2-(2-aminothiazol-4-yl)-2-(hydroxyimino)acetamido)-2-hydroxy-7-(pyrrolidin-1-ylmethyl)-3,4-dihydro-2H-benzo[e][1,2]oxaborinine-8-carboxylic Acid] | > 128 | < 64
6 | Nc1nc(/C(=N/O)C(=O)N[C@H]2Cc3ccc(/C=C/C(=O)O)c(C(=O)O)c3OB2O)cs1 [Example 27, (R)-3-((Z)-2-(2-aminothiazol-4-yl)-2-(hydroxyimino)acetamido)-7-((E)-2-carboxyvinyl)-2-hydroxy-3,4-dihydro-2H-benzo[e][1,2]oxaborinine-8-carboxylic Acid] | 64 to 128 | > 128
7 | Nc1nc(/C(=N/O)C(=O)N[C@H]2Cc3ccc(CCC(=O)O)c(C(=O)O)c3OB2O)cs1 [Example 28, (R,Z)-3-(2-(2-aminothiazol-4-yl)-2-(hydroxyimino)acetamido)-7-(2-carboxyethyl)-2-hydroxy-3,4-dihydro-2H-benzo[e][1,2]oxaborinine-8-carboxylic Acid] | > 128 | > 128
8 | Nc1nc(/C(=N/O)C(=O)N[C@H]2Cc3cc(F)cc(C(=O)O)c3OB2O)cs1 [Example 32, (R,Z)-3-(2-(2-aminothiazol-4-yl)-2-(hydroxyimino)acetamido)-6-fluoro-2-hydroxy-3,4-dihydro-2H-benzo[e][1,2]oxaborinine-8-carboxylic Acid] | < 64 | < 64
9 | Nc1nc(/C(=N/O)C(=O)N[C@H]2Cc3cc(CN4CCCC4)cc(C(=O)O)c3OB2O)cs1 [Example 33, (R,Z)-3-(2-(2-aminothiazol-4-yl)-2-(hydroxyimino)acetamido)-2-hydroxy-6-(pyrrolidin-1-ylmethyl)-3,4-dihydro-2H-benzo[e][1,2]oxaborinine-8-carboxylic Acid] | > 128 | < 64
10 | Nc1nc(/C(=N/O)C(=O)N[C@H]2Cc3ccc(F)c(C(=O)O)c3OB2O)cs1 [Example 39, (R,Z)-3-(2-(2-aminothiazol-4-yl)-2-(hydroxyimino)acetamido)-7-fluoro-2-hydroxy-3,4-dihydro-2H-benzo[e][1,2]oxaborinine-8-carboxylic Acid] | < 64 | < 64
11 | Nc1nc(/C(=N/O)C(=O)N[C@H]2Cc3c(F)c(F)cc(C(=O)O)c3OB2O)cs1 [Example 40, (R,Z)-3-(2-(2-aminothiazol-4-yl)-2-(hydroxyimino)acetamido)-5,6-difluoro-2-hydroxy-3,4-dihydro-2H-benzo[e][1,2]oxaborinine-8-carboxylic Acid] | > 128 | < 64
12 | Nc1nc(/C(=N/O)C(=O)N[C@H]2Cc3cc(O)cc(C(=O)O)c3OB2O)cs1 [Example 43, (R,Z)-3-(2-(2-aminothiazol-4-yl)-2-(hydroxyimino)acetamido)-2,6-dihydroxy-3,4-dihydro-2H-benzo[e][1,2]oxaborinine-8-carboxylic Acid] | 64 to 128 | < 64
13 | Nc1nc(/C(=N/O)C(=O)N[C@H]2Cc3cc(OC(F)(F)F)cc(C(=O)O)c3OB2O)cs1 [Example 45, (R,Z)-3-(2-(2-aminothiazol-4-yl)-2-(hydroxyimino)acetamido)-2-hydroxy-6-(trifluoromethoxy)-3,4-dihydro-2H-benzo[e][1,2]oxaborinine-8-carboxylic Acid] | < 64 | < 64
14 | Nc1nc(/C(=N/OC2CCNCC2)C(=O)N[C@H]2Cc3cccc(C(=O)O)c3OB2O)cs1 [Example 51, (R,Z)-3-(2-(2-aminothiazol-4-yl)-2-((piperidin-4-yloxy)imino)acetamido)-2-hydroxy-3,4-dihydro-2H-benzo[e][1,2]oxaborinine-8-carboxylic Acid] | 64 to 128 | > 128
15 | Nc1nc(/C(=N/OC2CNC2)C(=O)N[C@H]2Cc3cccc(C(=O)O)c3OB2O)cs1 [Example 53, (R,Z)-3-(2-(2-aminothiazol-4-yl)-2-((azetidin-3-yloxy)imino)acetamido)-2-hydroxy-3,4-dihydro-2H-benzo[e][1,2]oxaborinine-8-carboxylic Acid] | 64 to 128 | > 128
16 | NCCNC(=O)CO/N=C(\C(=O)N[C@H]1Cc2cccc(C(=O)O)c2OB1O)c1csc(N)n1 [Example 54, (R,Z)-3-(2-((2-((2-aminoethyl)amino)-2-oxoethoxy)imino)-2-(2-aminothiazol-4-yl)acetamido)-2-hydroxy-3,4-dihydro-2H-benzo[e][1,2]oxaborinine-8-carboxylic Acid] | < 64 | > 128
17 | CC(C)(O/N=C(\C(=O)N[C@H]1Cc2cccc(C(=O)O)c2OB1O)c1csc(N)n1)C(=O)N[C@@H](CCC(=O)O)C(=O)O [Example 77, (2-((((Z)-1-(2-aminothiazol-4-yl)-2-(((R)-8-carboxy-2-hydroxy-3,4-dihydro-2H-benzo[e][1,2]oxaborinin-3-yl)amino)-2-oxoethylidene)amino)oxy)-2-methylpropanoyl)-L-glutamic Acid] | < 64 | > 128
18 | COc1cc2c(c(C(=O)O)c1)OB(O)[C@@H](NC(=O)/C(=N\OC(C)(C)C(=O)O)c1csc(N)n1)C2 [Example 79, (R,Z)-3-(2-(2-aminothiazol-4-yl)-2-(((2-carboxypropan-2-yl)oxy)imino)acetamido)-2-hydroxy-6-methoxy-3,4-dihydro-2H-benzo[e][1,2]oxaborinine-8-carboxylic Acid] | < 64 | > 128
19 | CC(C)(O/N=C(\C(=O)N[C@H]1Cc2cc(O)cc(C(=O)O)c2OB1O)c1csc(N)n1)C(=O)O [Example 80, (R,Z)-3-(2-(2-aminothiazol-4-yl)-2-(((2-carboxypropan-2-yl)oxy)imino)acetamido)-2,6-dihydroxy-3,4-dihydro-2H-benzo[e][1,2]oxaborinine-8-carboxylic Acid] | < 64 | > 128
20 | COc1cc2c(c(C(=O)O)c1)OB(O)[C@@H](NC(=O)/C(=N\OC(C)(C)C(N)=O)c1csc(N)n1)C2 [Example 81, (R,Z)-3-(2-(((1-amino-2-methyl-1-oxopropan-2-yl)oxy)imino)-2-(2-aminothiazol-4-yl)acetamido)-2-hydroxy-6-methoxy-3,4-dihydro-2H-benzo[e][1,2]oxaborinine-8-carboxylic Acid] | < 64 | > 128
21 | O=C(N[C@H]1Cc2cccc(C(=O)O)c2OB1O)/C(=N\O)c1ccccc1 [Example 83, (R,Z)-2-hydroxy-3-(2-(hydroxyimino)-2-phenylacetamido)-3,4-dihydro-2H-benzo[e][1,2]oxaborinine-8-carboxylic Acid] | > 128 | < 64
22 | Nc1nc(C(=CCCC(=O)O)C(=O)N[C@H]2Cc3cccc(C(=O)O)c3OB2O)cs1 [Example 84, (R)-3-(2-(2-aminothiazol-4-yl)-5-carboxypent-2-enamido)-2-hydroxy-3,4-dihydro-2H-benzo[e][1,2]oxaborinine-8-carboxylic Acid] | < 64 | > 128
23 | Nc1nc(C(=CCCO)C(=O)N[C@H]2Cc3cccc(C(=O)O)c3OB2O)cs1 [Example 85, (R)-3-(2-(2-aminothiazol-4-yl)-5-hydroxypent-2-enamido)-2-hydroxy-3,4-dihydro-2H-benzo[e][1,2]oxaborinine-8-carboxylic Acid] | 64 to 128 | 64 to 128
24 | Nc1nc(/C(=C\c2cccnc2)C(=O)N[C@H]2Cc3cccc(C(=O)O)c3OB2O)cs1 [Example 86, (R,E)-3-(2-(2-aminothiazol-4-yl)-3-(pyridin-3-yl)acrylamido)-2-hydroxy-3,4-dihydro-2H-benzo[e][1,2]oxaborinine-8-carboxylic Acid] | < 64 | 64 to 128
